Laboratory results from patent publication US9744164B2, “Neuroprotective polyphenol analogs” (Salk Institute for Biological Studies, priority 2011, dated 2017).

What was measured:
[1] = test system: embolic strokes in rabbits; experiment: rabbit small clot embolic stroke model (RSCEM); format: in vivo
From the text: The ability of polyphenol analogs to treat, prevent and/or mitigate one or more symptoms of stroke can also be evaluated in in vivo assays. Such assays are known in the art and find use. One applicable in vivo screening assay is the rabbit clot embolic stroke model, discussed, e.g., in Lapchak, et al., Stroke (2002) 33(9):2279-84 and Lapchak, Exp Neurol. (2007) 205(2):407-13. The rabbit small clot embolic stroke model (RSCEM) and rabbit large clot embolic stroke model (RLCEM) can be used to determine the potential neuroprotective properties and safety profile of test polyphenol analogs after an embolic stroke. Rabbits are embolized by injecting small blood clots (RSCEM) or large blood clots (RLCEM) into the cerebral circulation. Behavioral analysis is conducted 24 hours later, allowing for determination of the effective stroke dose (ES50) or clot amount (milligrams) that produces severe neurological deficits in 50% of rabbits. A drug is considered neuroprotective if it increases the ES50 compared with the vehicle-treated control group.
Either vehicle or bolus injections of chlorogenic acid were administered intravenously over 1 minute starting 5 minutes following embolization using a suspension of small-sized blood clots. In this series of studies, CGA was administered at 50 mg/kg. Behavioral analysis was conducted at 24 hours following treatment, which allowed for the construction of quantal dose-response analysis curves. […] For the superimposed graphs, normal animals are plotted on the y-axis at 0% and abnormal animals are plotted at 100%. […] Moreover, CGA increased the P50 value (the clot dose that produces abnormality in 50% of a treatment group) compared to vehicle control. For a detailed discussion of the methods used to fit the quantal data to a sigmoidal curve, see Zivin and Waud. The pharmacology of chlorogenic acid in the rabbit small clot embolic stroke model (RSCEM) has been published (Lapchak, Exp Neurol. 2007 205(2):407-13). In the manuscript, it is shown that CGA has a therapeutic window of 60 minutes in the RSCEM. FIG. 2 presents the therapeutic window data.
Using the RSCEM assay described above for CGA, the effects of Fisetin (50 mg/kg) on behavioral outcome measured 24 hours following embolization is tested.

[2] = test system: rat cortical neurons; experiment: trophic factor withdrawal; format: cell-based; details: serum-containing medium, Baicalein 10-10,000 nM, 2 days
Protocol: FIG. 5A—trophic factor withdrawal. Primary cortical neurons are prepared from 18-day-old rat embryos, and cultured at low cell density 1×10^6/35 mm dish, in serum containing medium with Baicalein (10-10,000 nM), and viability assayed 2 days later using a live-dead assay. […] These include trophic factor withdrawal (TFW), excitotoxicity, glucose starvation, and most importantly, in a chemical ischemia model. […] (FIG. 5A). Using a published excitotoxicity assay, Baicalein rescues about 35% of the cells (FIG. 5B).

[3] = test system: RGC-5 nerve cells; experiment: chemical ischemia model (IAA) in RGC-5 cells; format: cell-based; details: RGC-5, 30 μM IAA 2 hr, Baicalein 5-25 μM, also added 2 hrs after insult
Protocol: FIG. 5D—RGC-5 nerve cells were treated with 30 μM iodoacetic acid for 2 hr in the presence or absence of 5-25 μM Baicalein. In some experiments, Baicalein was added 2 hr after the ischemic event. Cell survival (%) was measured after 24 hr by the MTT assay. Baicalein added before (□) or 2 hr after (●) ischemia. […] When these cells are starved for glucose, there is approximately 70% maximal survival in the presence of NGF. Baicalein promotes over 80% survival (FIG. 5C).

[4] = test system: N9 microglial cells; experiment: anti-inflammatory assay, LPS-induced microglial activation (NO release); format: cell-based, mouse; details: bacterial lipopolysaccharide, derivative 1-10 μM, 24 hr
How it was run: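 Mouse N9 microglia in DME/7.5% DFCS stimulated with 10 μg/ml LPS alone or with derivatives (1-10 μM) for 24 hr. NO in cleared medium measured by Griess reagent, 10 min at room temperature, absorbance at 550 nm. Fisetin (10 μM) as positive control.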

Compound | microglia (anti-inflammatory activity) [4] | further results
O=c1cc(-c2ccccc2)oc2cc(O)c(O)c(O)c12 [Baicalein, 5,6,7-trihydroxyflavone] |  | behavior when administered 1 hour following embolization ([1]; 1 hour following embolization): effective at improving behavior; behavior when administered 3 hours following embolization ([1]; 3 hours following embolization): neither improve behavior; survival of low-density cultured rat cortical neurons [2]: dramatically promotes the survival; cell death in chemical ischemia model [3]: prevents cell death
O=c1c(O)c(-c2ccc(O)c(O)c2)oc2ccccc12 [CMS-04P, reference compound] | 80% | 
COc1cc(-c2ccc(O)c(O)c2)nc2ccccc12 [CMS-007, 4-methoxy-2-(3,4-dihydroxyphenyl)quinoline] | 85% | 
CCOc1cc(-c2ccc(O)c(O)c2)nc2ccccc12 [CMS-023, 4-ethoxy-2-(3,4-dihydroxyphenyl)quinoline] | 90% | 
CC(C)Oc1cc(-c2ccc(O)c(O)c2)nc2ccccc12 [CMS-024, 4-isopropoxy-2-(3,4-dihydroxyphenyl)quinoline] | 80% | 
COc1ccc(/C=C/C(=O)c2cc(C)c(C)cc2O)cc1OCc1ccccc1 [CMS-086, (E)-3-(3-(benzyloxy)-4-methoxyphenyl)-1-(2-hydroxy-4,5-dimethylphenyl)prop-2-en-1-one] | 70% | 
Oc1ccc(-c2cc(OC3CCCC3)c3ccccc3n2)cc1O [CMS-121, 4-cyclopentyloxy-2-(3,4-dihydroxyphenyl)quinoline] | 82% | 
O=c1c(O)c(-c2ccc(N3CCCC3)c(O)c2)oc2c1ccc1ccccc12 [CMS-140, 3-hydroxy-2-(3-hydroxy-4-(pyrrolidin-1-yl)phenyl)-4H-benzo[h]chromen-4-one] | 50% | 
O=c1c(O)c(-c2ccc(O)c(O)c2)oc2cc(O)ccc12 [Fisetin, 3,7,3′,4′-tetrahydroxy flavone] | 80% | 
